Key:
Int-1 strain of NTHi = test: Inhibition of Int-1 growth by phage-displayed peptides (overnight in sBHI broth, OD630 and colony counts); assay type: cell-based, Haemophilus influenzae; conditions: for MIC concentration resulting in no bacterial growth: FIGS. 3A and 3B
Procedure: The next day, the optical densities of the bacterial cultures were evaluated by direct measurement of the optical densities at OD630 nm.
Int-1, a non-typeable clinical isolate, was isolated in 1991 from the blood of a child with clinical symptoms of meningitis. It is virulent in rat models and is able to survive in human serum. Kw20, a non-typeable strain, was isolated in 1954. R3001, a non-typeable clinical isolate, was isolated from a bronchial lavage of a cystic fibrosis patient. R2140, is a non-typeable clinical isolate. R538 is a Haemophilus influenzae type b ATCC strain No. 9795. E1a is a type b Haemophilus influenzae clinical isolate.

NTHi = test: Microscopic examination of cell membrane integrity; assay type: cell-based, Haemophilus influenzae; conditions: microscopic results
Enterococcus faecialis [1] = test: Growth of other bacterial species in presence of hi3/17; assay type: cell-based; conditions: FIG. 4
Procedure: (§1) (Salmonella), Enterococcus faecialis (E. faec.), Staphylococcus aureus (S. aur.) and Pseudomonas aeruginosa (P. aeru.). One hundred and fifty μl of the test bacteria were incubated in the presence of either hi3/17, f88 unselected phage display library in sBHI broth (supplemented with 10 μg/mL heme and NAD+) or control sBHI at 37° C. The next day, the optical densities of the bacterial cultures were evaluated by direct measurement of the optical densities at OD630 nm. Dilutions of the bacteria were incubated on sBHI agar plates to determine the total number of colonies per well.

Staphylococcus aureus = test: as above; assay type: cell-based; conditions: FIG. 4
Procedure: as §1

Proteus [2] = test: as above; assay type: cell-based, Proteus mirabilis; conditions: FIG. 4
Procedure: as §1

Proteus [3] = test: Binding to bacteria via ELISA; set-up: species or system Proteus mirabilis
Enterococcus faecialis [4] = test: Binding to bacteria via ELISA

In the case of VVFLSSRNSAVFTDF [fUSE5/2], the “bactericidal activity against Int-1” value (Int-1 strain of NTHi) is reported as “bactericidal”, the “MIC concentration resulting in no bacterial growth” value (Int-1 strain of NTHi) is reported as 2.4×10^10 virions and the “effect on cell membrane integrity of NTHi” value (NTHi) is reported as “altered the cell membrane integrity”.
With KQRTSIRATEGCLPS [hi3/17] the MIC (Int-1 strain of NTHi) was ~1e10 virions per μl, the “bactericidal activity against Int-1” value (Int-1 strain of NTHi) was “bactericidal” and the “greater antimicrobial activity towards Int-1 compared with Group 2 phage displayed peptides” value (Int-1 strain of NTHi) was “over 5 fold”. The “MIC concentration resulting in no bacterial growth” value (Int-1 strain of NTHi) was 3.64×10^9 virions, the “effect on cell membrane integrity of NTHi” value (NTHi) was “altered the cell membrane integrity” and the “antimicrobial activity against Enterococcus faecialis” value (Enterococcus faecialis [1]) was “no activity”. The “inhibition of growth of Staphylococcus aureus” value (Staphylococcus aureus) was “completely inhibit the growth”, the “antimicrobial activity against Proteus” value (Proteus [2]) was “no activity” and the “binding via ELISA” value (Proteus [3]) was “binding being detectable”. The “binding via ELISA” value (Enterococcus faecialis [4]) was “binding being detectable”.

Source: US7238669B2, “Phage-display peptides as novel antimicrobial agents against Haemophilus influenzae” (priority 2002, dated 2007)
